Source: US20120270935A1, “FORMULATIONS” (priority 2009, published 2012)

How the values were obtained:
[1] = test system: P. granulosum; experiment: Agar dilution MIC assay, panel of propionibacterium strains; format: cell-based, Propionibacterium granulosum; conditions: resistance MLSK
Method: (§1) This is a standard international method for quantitatively assessing the antimicrobial activity of a compound in a solid medium. The test compound was prepared to 40× the highest concentration required (eg 10 mg/ml for a final concentration of […]) and a series of doubling dilutions were performed in a suitable solvent. A set amount of these antimicrobial stock solutions was then added to molten agar medium (ca 55° C.), mixed thoroughly, poured into sterile Petri dishes and allowed to cool/set. The culture medium was as described above.
(§2) A Multipoint™ Inoculator (AQS Manufacturing Ltd, UK) was used to inoculate the plates by spotting the inocula onto the surface of the agar, delivering approximately 1 to 2 μl per spot (yielding 10^5 CFU (colony forming units) per spot).
(§3) The plate(s) were then incubated under the conditions described above, following which they were examined visually for signs of bacterial growth. The MIC value was ascertained when there was a marked reduction in, or total loss of, growth on the test plate at the lowest concentration as compared to that of the growth on the control plate.
(§4) The assays were conducted in triplicate and included a positive control (culture medium, diluting solvent and inoculum).
The activity (MIC by agar dilution) of copper usnate was determined against a panel of different propionibacterium strains. […]

[2] = test system: P. acnes; experiment: as above; format: cell-based, Propionibacterium acnes
Method: as §1, §2, §3, §4
The activity (MIC by agar dilution) of copper usnate was determined against a panel of different propionibacterium strains. The culture medium was Wilkins-Chalgren agar, at pH 6.0. DMSO was used as the solvent. All tests were performed in triplicate.

[3] = test system: C. striatum NCTC 764; experiment: Disc diffusion assay (DDA); format: cell-based, Corynebacterium striatum; conditions: Corynebacterium striatum, NCTC764; 200 μg per disc; single plates; read-out: DDA zone diameter
Source text: (a) staphylococci. The Staphylococcus aureus strain used was ATCC 29213. S. aureus and other staphylococci are common causes of a wide range of skin, skin structure and wound infections; S. aureus is also known to exacerbate eczema. The ATCC 29213 strain is known to be susceptible to beta-lactam antibiotics such as methicillin. The Staphylococcus epidermidis strain used was NCTC 11047. Staph. epidermidis forms part of the resident flora of skin and is an opportunistic pathogen which can cause biofilms to grow for instance on plastic surgical implants such as catheters. Unless otherwise stated, the staphylococci were cultured and maintained on Mueller-Hinton Medium (agar and broth) at pH 7.2; cultures were incubated aerobically at 37° C. for 19-20 hours, at pH 7 (±0.2). (b) C. striatum NCTC 764. Corynebacterium striatum is closely related to organisms (aerobic diphtheroids of the genus Corynebacterium) that cause body odour. It was cultured and maintained on Mueller-Hinton medium (agar and broth). All cultures were incubated aerobically at 37° C. for 72 hours, at pH 7 (±0.2). (c) streptococci. […]
A sterile paper disc was impregnated with a sample of the test compound in a suitable solvent and 30 minutes allowed for the solvents to evaporate (where possible). […] The diameter of this zone of “inhibition” was measured using a ProtoCOL™ automated zone sizer (Synbiosis, Cambridge, UK). […]

| SMILES | MIC ([1]; P. granulosum PRP-005, Erm X) [µg/mL] | MIC ([1]; P. granulosum PRP-019, Erm X) [µg/mL] | MIC ([2]; P. acnes NCTC 737, mutation None, resistance phenotype None) [µg/mL] | MIC ([2]; P. acnes PRP-002, mutation 1058/2058, resistance Tet/MLS) [µg/mL] | MIC ([2]; P. acnes PRP-003, mutation 1058, resistance Tet) [µg/mL] | MIC ([2]; P. acnes PRP-004, mutation 1058, resistance Tet) [µg/mL] | MIC ([2]; P. acnes PRP-007, mutation Unknown, resistance Clin) [µg/mL] | MIC ([2]; P. acnes PRP-010, Erm X, resistance MLSK) [µg/mL] | MIC ([2]; P. acnes PRP-017, mutation 2058, resistance MLS) [µg/mL] | MIC ([2]; P. acnes PRP-023, Erm X, resistance MLSK) [µg/mL] | MIC ([2]; P. acnes PRP-026, mutation 2059, resistance MLS) [µg/mL] | MIC ([2]; P. acnes PRP-039, mutation 2059, resistance Tet/MLS) [µg/mL] | MIC ([2]; P. acnes PRP-046, mutation None, resistance None) [µg/mL] | MIC ([2]; P. acnes PRP-059, mutation 2058, resistance MLS) [µg/mL] | MIC ([2]; P. acnes PRP-101, mutation 1058/2059, resistance Tet/MLS) [µg/mL] | MIC ([2]; P. acnes PRP-102, mutation 1058/2059, resistance Tet/MLS) [µg/mL] | zone of inhibition at 200 µg/disc [3] [mm] |
| --- | --- | --- | --- | --- | --- | --- | --- | --- | --- | --- | --- | --- | --- | --- | --- | --- | --- |
| CC(=O)c1c([O-])c(C)c([O-])c2c1OC1=CC(=O)C(C(C)=O)C(=O)C12C.[Cu+2] (centres unmarked) [Copper usnate, copper (II) usnate] | 1.95 | 1.95 | 0.49 | 0.49 | 0.49 | 0.49 | 0.49 | 0.49 | 0.49 | 0.49 | 0.49 | 0.49 | 0.49 | 0.49 | 0.49 | 0.49 |  |
| CC(=O)c1c(O)c(C)c(O)c2c1OC1=CC(=O)C(C(C)=O)C(=O)C12C (centres unmarked) [Usnic acid, 2,6-diacetyl-7,9-dihydroxy-8,9b-dimethyl-1,3(2H,9bh)-dibenzofurandione] |  |  |  |  |  |  |  |  |  |  |  |  |  |  |  |  | 20 |
